Experiments:
[1] = FLODEX powder flowability (Flodex); format: physicochemical; conditions: for Flowdex: crystalline compound (1) lot, Table 2; for Flodex: neat powder, listed as Compound (1)
Text: The flow of dry powders was characterized using a FLODEX™ Powder Flowability Index Test Instrument (Hanson Research Corporation, Chatsworth, Calif.). The instrument was equipped with a cylindrical metal reservoir, which holds the test powder prior to flow testing. The cylindrical reservoir has an inside diameter of 5.7 cm and a length of […]. The bottom end of the reservoir can be closed with removable metal discs. Each disc has a round orifice centered in the disc. Orifice diameters range from 4 mm to 10 mm in 1 mm increments, and from 10 mm to 34 mm in 2 mm increments. Prior to flow testing, the orifice is blocked. Powder is then placed over the blocked orifice. When the orifice is unblocked, powder can flow through the orifice under the force of gravity if the orifice diameter is sufficiently large. Powder that flows through small orifices is considered to have flow properties useful for tableting. For example, a Flodex measurement (Flodex) of less than about 24 mm is […] high-speed tableting operations at commercial scale. A Flodex less than about 20 mm is useful for high-speed tableting operations. A Flodex of 18 mm or less is considered especially useful for high speed tableting operations.
The Flodex is determined by first gently filling the reservoir with approximately 70 cc of test powder while the orifice at the bottom is blocked, while avoiding severe piling, and without vibrating or tapping the powder bed. Next, the orifice is unblocked. This can be accomplished by opening a shutter that is supplied with the instrument. Alternatively, if a shutter is not used, the powder-filled reservoir fitted with a disc can be set on a dry, flat surface to block the orifice. Then, slowly and evenly, the reservoir is lifted to allow the powders to flow. In either procedure, if the powder flows through the orifice, a clear channel is left within the powder bed. […] The flow test is conducted with various orifice sizes until the minimum orifice size for good flow is identified, which is referred to as the Flodex.

[2] = Particle size of compound (1) lots, wet and dry method; format: physicochemical
[3] = clinical trials (Gerson et al. 2009); cited from earlier work
[4] = Bulk density, tap density and compressibility of powders; format: physicochemical; conditions: major component of Example 15 blend
[5] = dosed either orally or directly into the colon of a mammal; cited from earlier work

Row | SMILES | Flowdex [1] [mm] | Flodex ([1]; Lot 70) [mm] | Particle size, Dry method, dv0.5 [2] [μm] | Particle size, Dry method, dv0.9 [2] [μm] | Particle size, Wet method, dv0.5 [2] [μm] | Particle size, Wet method, dv0.9 [2] [μm] | Flodex ([1]; Lot 4) [mm] | Flodex ([1]; Lot 71) [mm] | reflux episodes [3] | Bulk Density [4] [g/cc] | bioavailability as R-baclofen [5]
1 | CC(C)C(=O)O[C@@H](OC(=O)NC[C@H](CC(=O)O)c1ccc(Cl)cc1)C(C)C [Lot 70, (3R)-4-{[(1S)-2-Methyl-1-(2-methylpropanoyloxy)propoxy]carbonylamino}-3-(4-chlorophenyl)butanoic acid] | 26 | 26 | 27.53 | 106.87 | 4.81 | 37.2 | – | – | – | – | –
2 | CC(C)C(=O)O[C@@H](OC(=O)NC[C@H](CC(=O)O)c1ccc(Cl)cc1)C(C)C [Lot 4, (3R)-4-{[(1S)-2-Methyl-1-(2-methylpropanoyloxy)propoxy]carbonylamino}-3-(4-chlorophenyl)butanoic acid] | 23 | – | 11.09 | 102 | 3.35 | 40.47 | 24 | – | – | – | –
3 | CC(C)C(=O)O[C@@H](OC(=O)NC[C@H](CC(=O)O)c1ccc(Cl)cc1)C(C)C [Lot 71, (3R)-4-{[(1S)-2-Methyl-1-(2-methylpropanoyloxy)propoxy]carbonylamino}-3-(4-chlorophenyl)butanoic acid] | 26 | – | 17.64 | 107.48 | 22.17 | 63.02 | – | 26 | – | – | –
4 | CC(C)C(=O)O[C@@H](OC(=O)NC[C@H](CC(=O)O)c1ccc(Cl)cc1)C(C)C [Compound (1), (3R)-4-{[(1S)-2-Methyl-1-(2-methylpropanoyloxy)propoxy]carbonylamino}-3-(4-chlorophenyl)butanoic acid] | – | – | – | – | – | – | – | – | reduce reflux episodes | 0.15 | high bioavailability
